# In ChEMBL document CHEMBL1201861, “Genomics of Drug Sensitity in Cancer screening data, Wellcome Trust Sanger Institute”:
# What was measured:
# LC-1F = assay: cells; assay type: functional, cell-based, Homo sapiens; conditions: Homo sapiens, LC-1F;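 note: growth inhibition of human LC-1F cells, read out with a cell viability assay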
# Description: SANGER: Inhibition of human LC-1F cell growth in a cell viability assay.
# UACC-62 = assay: cells; assay type: functional, cell-based; conditions: Homo sapiens;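 note: growth inhibition of human UACC-62 cells, read out by a cell viability assay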
# Description: SANGER: Inhibition of human UACC-62 cell growth in a cell viability assay.
# AGS = assay: cells; assay type: functional, cell-based; conditions: Homo sapiens;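 note: growth inhibition of AGS cells, determined with a cell viability assay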
# Description: SANGER: Inhibition of human AGS cell growth in a cell viability assay.
# MeWo = assay: cells; assay type: functional, cell-based; conditions: Homo sapiens;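 note: growth inhibition of MeWo cells, determined by a cell viability readout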
# Description: SANGER: Inhibition of human Mewo cell growth in a cell viability assay.
# EB2 = assay: cells; assay type: functional, cell-based, Homo sapiens; conditions: Homo sapiens, EB2;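 note: growth inhibition of EB2 cells, read out with a cell viability assay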
# Description: SANGER: Inhibition of human EB2 cell growth in a cell viability assay.
# HSC-3 = assay: cells; assay type: functional, cell-based; conditions: Homo sapiens
# Description: SANGER: Inhibition of human HSC-3 cell growth in a cell viability assay.
# NCI-H1882 = assay: cells; assay type: functional, cell-based, Homo sapiens; conditions: Homo sapiens, NCI-H1882;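 note: growth inhibition of the cell line, determined with a viability assay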
# Description: SANGER: Inhibition of human NCI-H1882 cell growth in a cell viability assay.
# MDA-MB-175-VII = assay: cells; assay type: functional, cell-based; conditions: Homo sapiens
# RT-112 = assay: cells; assay type: functional, cell-based; conditions: Homo sapiens
# Description: SANGER: Inhibition of human RT-112 cell growth in a cell viability assay.
# SW-620 = assay: cells; assay type: functional, cell-based; conditions: Homo sapiens;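 note: growth inhibition of human SW-620 cells, measured by a cell viability assay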
# Description: SANGER: Inhibition of human SW620 cell growth in a cell viability assay.
# RO82-W-1 = assay: cells; assay type: functional, cell-based; conditions: Homo sapiens;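 note: growth inhibition of human RO82-W-1 cells, measured with a cell viability assay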
# Description: SANGER: Inhibition of human RO82-W-1 cell growth in a cell viability assay.
# SW1417 = assay: cells; assay type: functional, cell-based; conditions: Homo sapiens;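 note: growth inhibition of human SW1417 cells, read out with a cell viability assay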
# Description: SANGER: Inhibition of human SW1417 cell growth in a cell viability assay.
# SCC-3 = assay: cells; assay type: functional, cell-based, Homo sapiens; conditions: Homo sapiens, SCC-3;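 note: cell viability assay measuring inhibition of SCC-3 cell growth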
# Description: SANGER: Inhibition of human SCC-3 cell growth in a cell viability assay.
# M059J = assay: cells; assay type: functional, cell-based; conditions: Homo sapiens;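 note: growth inhibition of M059J cells, read out with a cell viability assay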
# Description: SANGER: Inhibition of human M059J cell growth in a cell viability assay.
# MFH-ino = assay: cells; assay type: functional, cell-based, Homo sapiens; conditions: Homo sapiens, MFH-ino;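 note: growth inhibition of human MFH-ino cells, read out by a cell viability assay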
# Description: SANGER: Inhibition of human MFH-ino cell growth in a cell viability assay.
# CWR22R = assay: cells; assay type: functional, cell-based; conditions: Homo sapiens, 22Rv1;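 note: growth inhibition of 22Rv1 cells, read out with a cell viability assay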
# Description: SANGER: Inhibition of human 22RV1 cell growth in a cell viability assay.
# GMS-10 = assay: cells; assay type: functional, cell-based; conditions: Homo sapiens;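 note: growth inhibition of GMS-10 cells, read out as cell viability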
# Description: SANGER: Inhibition of human GMS-10 cell growth in a cell viability assay.
# SNU-423 = assay: cells; assay type: functional, cell-based; conditions: Homo sapiens
# Description: SANGER: Inhibition of human SNU-423 cell growth in a cell viability assay.
# Calu-3 = assay: cells; assay type: functional, cell-based; conditions: Homo sapiens;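 note: growth inhibition of human Calu-3 cells, determined with a cell viability assay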
# Description: SANGER: Inhibition of human Calu-3 cell growth in a cell viability assay.
# WSU-NHL = assay: cells; assay type: functional, cell-based, Homo sapiens; conditions: Homo sapiens, WSU-NHL;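 note: growth inhibition of human WSU-NHL cells, read out with a cell viability assay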
# Description: SANGER: Inhibition of human WSU-NHL cell growth in a cell viability assay.
# A2058 = assay: cells; assay type: functional, cell-based; conditions: Homo sapiens;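 note: reduction of A2058 cell growth, read out with a viability assay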
# Description: SANGER: Inhibition of human A2058 cell growth in a cell viability assay.
# P12-Ichikawa = assay: cells; assay type: functional, cell-based; conditions: Homo sapiens
# NCI-H1993 = assay: cells; assay type: functional, cell-based; conditions: Homo sapiens;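 note: growth inhibition of the cancer cell line, assessed with a cell viability assay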
# Description: SANGER: Inhibition of human NCI-H1993 cell growth in a cell viability assay.
# T-24 = assay: cells; assay type: functional, cell-based; conditions: Homo sapiens;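 note: growth inhibition of T-24 cells, read out with a cell viability assay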
# Description: SANGER: Inhibition of human T-24 cell growth in a cell viability assay.
# DG-75 = assay: cells; assay type: functional, cell-based, Homo sapiens; conditions: Homo sapiens, DG-75;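 note: growth inhibition of DG-75 cells, read out with a cell viability assay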
# Description: SANGER: Inhibition of human DG-75 cell growth in a cell viability assay.
# NCI-H1417 = assay: cells; assay type: functional, cell-based, Homo sapiens; conditions: Homo sapiens, NCI-H1417;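 note: human NCI-H1417 cells, growth inhibition determined with a cell viability readout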
# Description: SANGER: Inhibition of human NCI-H1417 cell growth in a cell viability assay.
# HT1197 = assay: cells; assay type: functional, cell-based, HT-1197; conditions: Homo sapiens
# Description: SANGER: Inhibition of human HT-1197 cell growth in a cell viability assay.
# SN12C = assay: cells; assay type: functional, cell-based; conditions: Homo sapiens;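 note: growth inhibition of human SN12C cells, measured by a cell viability assay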
# Description: SANGER: Inhibition of human SN12C cell growth in a cell viability assay.
# YT = assay: cells; assay type: functional, cell-based, Homo sapiens; conditions: Homo sapiens, YT
# Description: SANGER: Inhibition of human YT cell growth in a cell viability assay.
# MDA-MB-361 = assay: cells; assay type: functional, cell-based; conditions: Homo sapiens
# IST-SL2 = assay: cells; assay type: functional, cell-based, Homo sapiens; conditions: Homo sapiens, IST-SL2;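 note: growth inhibition of human IST-SL2 cells, read out by a cell viability assay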
# Description: SANGER: Inhibition of human IST-SL2 cell growth in a cell viability assay.
# TYK-nu = assay: cells; assay type: functional, cell-based; conditions: Homo sapiens;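 note: growth inhibition of human TYK-nu cells, read out by a cell viability assay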
# Description: SANGER: Inhibition of human TYK-nu cell growth in a cell viability assay.
# MONO-MAC-6 = assay: cells; assay type: functional, cell-based, Homo sapiens; conditions: Homo sapiens, MONO-MAC-6;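 note: cell viability assay measuring growth inhibition of human MONO-MAC-6 cells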
# Description: SANGER: Inhibition of human MONO-MAC-6 cell growth in a cell viability assay.
# CPC-N = assay: cells; assay type: functional, cell-based, Homo sapiens; conditions: Homo sapiens, CPC-N;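 note: growth inhibition of CPC-N cells, with a cell viability assay as the readout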
# Description: SANGER: Inhibition of human CPC-N cell growth in a cell viability assay.
# SK-OV-3 = assay: cells; assay type: functional, cell-based; conditions: Homo sapiens;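 note: growth inhibition of SK-OV-3 human cells, read out with a cell viability assay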
# Description: SANGER: Inhibition of human SK-OV-3 cell growth in a cell viability assay.
# BT-20 = assay: cells; assay type: functional, cell-based; conditions: Homo sapiens;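 note: cell viability assay measuring suppression of growth in human BT-20 cells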
# Description: SANGER: Inhibition of human BT-20 cell growth in a cell viability assay.
# NCI-H1693 = assay: cells; assay type: functional, cell-based; conditions: Homo sapiens;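 note: growth inhibition of the human cell line, read out with a cell viability assay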
# Description: SANGER: Inhibition of human NCI-H1693 cell growth in a cell viability assay.
# DMS-79 = assay: cells; assay type: functional, cell-based, Homo sapiens; conditions: Homo sapiens, DMS-79
# Description: SANGER: Inhibition of human DMS-79 cell growth in a cell viability assay.
# BHY = assay: cells; assay type: functional, cell-based; conditions: Homo sapiens;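 note: cell growth inhibition read out by a viability assay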
# Description: SANGER: Inhibition of human BHY cell growth in a cell viability assay.
# Capan-2 = assay: cells; assay type: functional, cell-based; conditions: Homo sapiens;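 note: Capan-2 cell growth inhibition, read out with a viability assay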
# Description: SANGER: Inhibition of human Capan-2 cell growth in a cell viability assay.
# LN-405 = assay: cells; assay type: functional, cell-based; conditions: Homo sapiens
# Description: SANGER: Inhibition of human LN-405 cell growth in a cell viability assay.
# G-401 = assay: cells; assay type: functional, cell-based; conditions: Homo sapiens
# Description: SANGER: Inhibition of human G-401 cell growth in a cell viability assay.
# HSC-4 = assay: cells; assay type: functional, cell-based; conditions: Homo sapiens;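 note: growth inhibition of human HSC-4 cells, read out with a cell viability assay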
# Description: SANGER: Inhibition of human HSC-4 cell growth in a cell viability assay.
# SW780 = assay: cells; assay type: functional, cell-based; conditions: Homo sapiens;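 note: growth inhibition of the cells, read out with a cell viability assay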
# Description: SANGER: Inhibition of human SW780 cell growth in a cell viability assay.
# SJRH30 = assay: cells; assay type: functional, cell-based; conditions: Homo sapiens;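 note: growth inhibition of human SJRH30 cells, read out with a cell viability assay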
# Description: SANGER: Inhibition of human SJRH30 cell growth in a cell viability assay.
# Hs-578T = assay: cells; assay type: functional, cell-based; conditions: Homo sapiens
# Description: SANGER: Inhibition of human Hs-578-T cell growth in a cell viability assay.
# SK-MM-2 = assay: cells; assay type: functional, cell-based, Homo sapiens; conditions: Homo sapiens, SK-MM-2;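 note: growth inhibition of human SK-MM-2 cells, read out with a cell viability assay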
# Description: SANGER: Inhibition of human SK-MM-2 cell growth in a cell viability assay.
# KYSE-410 = assay: cells; assay type: functional, cell-based; conditions: Homo sapiens;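 note: growth inhibition of KYSE-410 cells, measured through a cell viability readout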
# Description: SANGER: Inhibition of human KYSE-410 cell growth in a cell viability assay.
# EFO-21 = assay: cells; assay type: functional, cell-based; conditions: Homo sapiens;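 note: growth inhibition of EFO-21 cells measured with a viability assay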
# Description: SANGER: Inhibition of human EFO-21 cell growth in a cell viability assay.
# NCI-H2196 = assay: cells; assay type: functional, cell-based, Homo sapiens; conditions: Homo sapiens, NCI-H2196; read-out: IC50;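 note: cell viability assay used as the readout of growth inhibition in NCI-H2196 cells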
# Description: SANGER: Inhibition of human NCI-H2196 cell growth in a cell viability assay.
# MEL-HO = assay: cells; assay type: functional, cell-based; conditions: Homo sapiens
# Description: SANGER: Inhibition of human MEL-HO cell growth in a cell viability assay.
# MIA PaCa-2 = assay: cells; assay type: functional, cell-based; conditions: Homo sapiens;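 note: growth inhibition of MIA PaCa-2 cells, read out with a cell viability assay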
# Description: SANGER: Inhibition of human MIA-PaCa-2 cell growth in a cell viability assay.
# HEC-1 = assay: cells; assay type: functional, cell-based; conditions: Homo sapiens;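 note: growth inhibition of the cell line, read out with a cell viability assay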
# Description: SANGER: Inhibition of human HEC-1 cell growth in a cell viability assay.
# COR-L279 = assay: SANGER: Inhibition of human COR-L279 cell growth in a cell viability assay.; assay type: functional, cell-based; conditions: Homo sapiens, COR-L279
# OAW-28 = assay: cells; assay type: functional, cell-based; conditions: Homo sapiens;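 note: growth inhibition of OAW-28 cells, read out with a cell viability assay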
# Description: SANGER: Inhibition of human OAW-28 cell growth in a cell viability assay.
# CAL-72 = assay: cells; assay type: functional, cell-based; conditions: Homo sapiens;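 note: cell viability assay measuring inhibition of proliferation in the CAL-72 cell line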
# Description: SANGER: Inhibition of human CAL-72 cell growth in a cell viability assay.
# HT-3 = assay: cells; assay type: functional, cell-based; conditions: Homo sapiens;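 note: growth inhibition measured with a cell viability readout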
# Description: SANGER: Inhibition of human HT-3 cell growth in a cell viability assay.
# CAKI-1 = assay: cells; assay type: functional, cell-based; conditions: Homo sapiens;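 note: growth inhibition of CAKI-1 cells, measured by a cell viability assay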
# Description: SANGER: Inhibition of human CAKI-1 cell growth in a cell viability assay.
# A204 = assay: cells; assay type: functional, cell-based; conditions: Homo sapiens;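 note: growth inhibition of human A204 cells, read out with a cell viability assay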
# Description: SANGER: Inhibition of human A204 cell growth in a cell viability assay.
compound,measurement,setting,value
OC[C@H](Cc1ccccc1)Nc1nc(Oc2ccc3c(c2)CCC3)nc2c1ncn2Cc1ccc(-c2ccccc2)cc1,IC50,LC-1F,> 10.2 µM
same,IC50,UACC-62,> 10.2 µM
same,IC50,AGS,6.71 µM
same,IC50,MeWo,> 10.2 µM
same,IC50,EB2,> 10.2 µM
same,IC50,HSC-3,3.88 µM
same,IC50,NCI-H1882,> 10.2 µM
same,IC50,MDA-MB-175-VII,> 10.2 µM
same,IC50,RT-112,> 10.2 µM
same,IC50,SW-620,3.16 µM
same,IC50,RO82-W-1,> 10.2 µM
same,IC50,SW1417,> 10.2 µM
same,IC50,SCC-3,> 10.2 µM
same,IC50,M059J,> 10.2 µM
same,IC50,MFH-ino,2.41 µM
same,IC50,CWR22R,> 10.2 µM
same,IC50,GMS-10,> 10.2 µM
same,IC50,SNU-423,> 10.2 µM
same,IC50,Calu-3,> 10.2 µM
same,IC50,WSU-NHL,> 10.2 µM
same,IC50,A2058,> 10.2 µM
same,IC50,P12-Ichikawa,7.93 µM
same,IC50,NCI-H1993,> 10.2 µM
same,IC50,T-24,> 10.2 µM
same,IC50,DG-75,> 10.2 µM
same,IC50,NCI-H1417,> 10.2 µM
same,IC50,HT1197,> 10.2 µM
same,IC50,SN12C,> 10.2 µM
same,IC50,YT,> 10.2 µM
same,IC50,MDA-MB-361,> 10.2 µM
same,IC50,IST-SL2,> 10.2 µM
same,IC50,TYK-nu,> 10.2 µM
same,IC50,MONO-MAC-6,> 10.2 µM
same,IC50,CPC-N,> 10.2 µM
same,IC50,SK-OV-3,> 10.2 µM
same,IC50,BT-20,> 10.2 µM
same,IC50,NCI-H1693,7.05 µM
same,IC50,DMS-79,> 10.2 µM
same,IC50,BHY,5.13 µM
same,IC50,Capan-2,> 10.2 µM
same,IC50,LN-405,> 10.2 µM
same,IC50,G-401,> 10.2 µM
same,IC50,HSC-4,> 10.2 µM
same,IC50,SW780,> 10.2 µM
same,IC50,SJRH30,> 10.2 µM
same,IC50,Hs-578T,> 10.2 µM
same,IC50,SK-MM-2,> 10.2 µM
same,IC50,KYSE-410,6.97 µM
same,IC50,EFO-21,> 10.2 µM
same,IC50,NCI-H2196,> 10.2 µM
same,IC50,MEL-HO,8.39 µM
same,IC50,MIA PaCa-2,8.88 µM
same,IC50,HEC-1,> 10.2 µM
same,IC50,COR-L279,> 10.2 µM
same,IC50,OAW-28,> 10.2 µM
same,IC50,CAL-72,> 10.2 µM
same,IC50,HT-3,> 10.2 µM
same,IC50,CAKI-1,> 10.2 µM
same,IC50,A204,> 10.2 µM
